37 compounds from patent US20110178062A1, “INDOLE AND BENZOTHIOPHENE COMPOUNDS AS MODULATORS OF THE HISTAMINE H3 RECEPTOR” (priority 2007, published 2011) can be followed below.

The assay addresses T1, cloned human H3 receptors, stably expressed in SK-N-MC cells (Homo sapiens, UniProt Q9Y5N1).
T1 construct: expressed in transfected cells; host or cells: SK-N-MC cells
The assay can be described thus: H3 Receptor Binding (Human). The settings on record: average of the results obtained. The procedure:
Binding of compounds to the cloned human H3 receptors, stably expressed in SK-N-MC cells, was performed as described by Barbier, A. J. et al. (Br. J. Pharmacol. 2004, 143(5), 649-661). Data for compounds tested in this assay are presented in Table 1 as an average of the results obtained.

T1 sequence (Q9Y5N1 whole entry): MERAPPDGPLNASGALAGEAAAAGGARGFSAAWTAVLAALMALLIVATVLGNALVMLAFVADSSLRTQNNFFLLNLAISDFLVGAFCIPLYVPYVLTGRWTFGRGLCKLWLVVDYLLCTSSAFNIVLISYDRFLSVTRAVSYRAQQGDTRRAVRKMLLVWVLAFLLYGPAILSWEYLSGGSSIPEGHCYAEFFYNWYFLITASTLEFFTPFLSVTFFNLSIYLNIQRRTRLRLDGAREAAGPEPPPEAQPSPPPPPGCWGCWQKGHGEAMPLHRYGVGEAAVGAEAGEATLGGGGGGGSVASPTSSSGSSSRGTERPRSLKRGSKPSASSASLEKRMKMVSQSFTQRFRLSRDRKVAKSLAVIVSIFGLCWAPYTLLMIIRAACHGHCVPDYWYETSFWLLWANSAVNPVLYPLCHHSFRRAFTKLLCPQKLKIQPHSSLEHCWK

The compound `CC(C)N1CCN(C(=O)c2ccc3c(CN4CCN(c5ccc(-c6ccccc6)cc5)CC4)c[nH]c3c2)CC1` [Example 52, [3-(4-Biphenyl-4-yl-piperazin-1-ylmethyl)-1H-indol-6-yl]-(4-isopropyl-piperazin-1-yl)-methanone] returned a Ki of 12 nM. In turn, `CC(C)N1CCN(C(=O)c2ccc3c(CN4CCN(Cc5ccccc5)CC4)c[nH]c3c2)CC1` [Example 51, [3-(4-Benzyl-piperazin-1-ylmethyl)-1H-indol-6-yl]-(4-isopropyl-piperazin-1-yl)-methanone] showed a Ki of 2 nM. Next, `O=C(c1ccc2c(CN3CCN(C4CCC4)CC3)c[nH]c2c1)N1CCSCC1` [Example 70, [3-(4-Cyclobutyl-piperazin-1-ylmethyl)-1H-indol-6-yl]-thiomorpholin-4-yl-methanone]: 27 nM; `O=C(c1ccc2c(CN3CCC(N4CCCCC4)CC3)c[nH]c2c1)N1CCC(Cc2ccccc2)CC1` [Example 106, (4-Benzyl-piperidin-1-yl)-(3-[1,4′]bipiperidinyl-1′-ylmethyl-1H-indol-6-yl)-methanone]: 70 nM. As for `O=C(c1cccc2[nH]cc(CN3CCOCC3)c12)N1CCN(C2CCC2)CC1` [Example 41, (4-Cyclobutyl-piperazin-1-yl)-(3-morpholin-4-ylmethyl-1H-indol-4-yl)-methanone], the figure is 5000 nM; as for `CN(C)C1CCN(Cc2c[nH]c3cc(C(=O)N4CCC(CO)CC4)ccc23)C1` (stereo not shown) [Example 94, [3-(3-Dimethylamino-pyrrolidin-1-ylmethyl)-1H-indol-6-yl]-(4-hydroxymethyl-piperidin-1-yl)-methanone], 27 nM. As for `CC(=O)N(C)C1CCN(Cc2c[nH]c3cc(C(=O)N4CCN(C(C)C)CC4)ccc23)C1` (stereo not shown) [Example 60, N-{1-[6-(4-Isopropyl-piperazine-1-carbonyl)-1H-indol-3-ylmethyl]-pyrrolidin-3-yl}-N-methyl-acetamide], the figure is 1 nM; as for `O=C(c1ccc2c(CN3CCOCC3)c[nH]c2c1)N1CCCN(C2CC2)CC1` [Example 8, (4-Cyclopropyl-[1,4]diazepan-1-yl)-(3-morpholin-4-ylmethyl-1H-indol-6-yl)-methanone], 1 nM.

`O=C(c1ccc2c(CN3CCC(N4CCCCC4)CC3)c[nH]c2c1)N1CCC(c2ccccc2)CC1` [Example 85, (3-[1,4′]Bipiperidinyl-1′-ylmethyl-1H-indol-6-yl)-(4-phenyl-piperidin-1-yl)-methanone] came in with a Ki of 81 nM. `CC(C)N1CCN(C(=O)c2ccc3c(CN4CCN(C(=O)c5ccncc5)CC4)c[nH]c3c2)CC1` [Example 62, (4-Isopropyl-piperazin-1-yl)-{3-[4-(pyridine-4-carbonyl)-piperazin-1-ylmethyl]-1H-indol-6-yl}-methanone] had an inhibitory constant (Ki) of 7 nM. Next, `Cn1cc(CN2CCOCC2)c2ccc(C(=O)N3CCN(C4CC4)CC3)cc21` [Example 2, (4-Cyclopropyl-piperazin-1-yl)-(1-methyl-3-morpholin-4-ylmethyl-1H-indol-6-yl)-methanone]: 46 nM; `O=C(c1ccc2c(CN3CCN(C4CCC4)CC3)c[nH]c2c1)N1CCOCC1` [Example 75, [3-(4-Cyclobutyl-piperazin-1-ylmethyl)-1H-indol-6-yl]-morpholin-4-yl-methanone]: 43 nM. Next, `O=C(c1ccc2c(CN3CCN(C4CCC4)CC3)c[nH]c2c1)N1CCC(CO)CC1` [Example 81, [3-(4-Cyclobutyl-piperazin-1-ylmethy)l-1H-indol-6-yl]-(4-hydroxymethyl-piperidin-1-yl)-methanone]: 17 nM. As for `O=C(c1ccc2c(CN3CCN(C4CCCC4)CC3)c[nH]c2c1)N1CCSCC1` [Example 68, [3-(4-Cyclopentyl-piperazin-1-ylmethyl)-1H-indol-6-yl]-thiomorpholin-4-yl-methanone], the figure is 36 nM. `O=C(c1ccc2c(CN3CCCN(C4CCC4)CC3)c[nH]c2c1)N1CCCCCC1` [Example 98, Azepan-1-yl-[3-(4-cyclobutyl-[1,4]diazepan-1-ylmethyl)-1H-indol-6-yl]-methanone] registered a Ki of 34 nM.

Consider `CN(C)C1CCN(Cc2c[nH]c3cc(C(=O)N4CCC(CO)CC4)ccc23)CC1` [Example 96, [3-(4-Dimethylamino-piperidin-1-ylmethyl)-1H-indol-6-yl]-(4-hydroxymethyl-piperidin-1-yl)-methanone], for which the Ki amounted to 439 nM.

`CN(C)C1CCN(Cc2c[nH]c3cc(C(=O)N4CCC(Cc5ccccc5)CC4)ccc23)CC1` [Example 100, (4-Benzyl-piperidin-1-yl)-[3-(4-dimethylamino-piperidin-1-ylmethyl)-1H-indol-6-yl]-methanone] had a Ki of 233 nM. As for `CC(C)N1CCN(C(=O)c2ccc3scc(C(=O)N4CCCCC4)c3c2)CC1` [Example 104, [5-(4-Isopropyl-piperazine-1-carbonyl)-benzo[b]thiophen-3-yl]-piperidin-1-yl-methanone], the figure is 772 nM. As for `CC(C)N1CCN(C(=O)c2ccc3c(CN4CCN(C(c5ccccc5)c5ccccc5)CC4)c[nH]c3c2)CC1` [Example 53, [3-(4-Benzydryl-piperazin-1-ylmethyl)-1H-indol-6-yl]-(4-isopropyl-piperazin-1-yl)-methanone], the figure is 19 nM; as for `CC(C)N1CCN(Cc2c[nH]c3cc(C(=O)N4CCC(CO)CC4)ccc23)CC1` [Example 82, (4-Hydroxymethyl-piperidin-1-yl)-[3-(4-isopropyl-piperazin-1-ylmethyl)-1H-indol-6-yl]-methanone], 34 nM; as for `O=C(c1ccc2c(CN3CCN(C4CCCC4)CC3)c[nH]c2c1)N1CCOCC1` [Example 74, [3-(4-Cyclopentyl-piperazin-1-ylmethyl)-1H-indol-6-yl]-morpholin-4-yl-methanone], 53 nM. As for `CN(C)C1CCN(Cc2c[nH]c3cc(C(=O)N4CCC(c5ccccc5)CC4)ccc23)C1` (stereo not shown) [Example 87, [3-(3-Dimethylamino-pyrrolidin-1-ylmethyl)-1H-indol-6-yl]-(4-phenyl-piperidin-1-yl)-methanone], the figure is 20 nM. `O=C(c1ccc2c(CN3CCC(N4CCCCC4)CC3)c[nH]c2c1)N1CCOCC1` [Example 73, (3-[1,4′]Bipiperidinyl-1′-ylmethyl-1H-indol-6-yl)-morpholin-4-yl-methanone]: the affinity, expressed as Ki, was 205 nM.

`CC(C)N1CCN(C(=O)c2ccc3c(CN4CCOCC4)cn(S(C)(=O)=O)c3c2)CC1` [Example 26, (4-Isopropyl-piperazin-1-yl)-(1-methanesulfonyl-3-morpholin-4-ylmethyl-1H-indol-6-yl)-methanone] came in with a Ki of 18 nM.

Regarding `O=C(c1ccc2c(CN3CCOCC3)c[nH]c2c1)N1CCc2nc[nH]c2C1` [Example 13, (3-Morpholin-4-ylmethyl-1H-indol-6-yl)-(3,4,6,7-tetrahydro-imidazo[4,5-d]pyridin-5-yl)-methanone], the Ki is 2000 nM. `O=C(c1ccc2c(CN3CCN(C4CCCC4)CC3)c[nH]c2c1)N1CCC(Cc2ccccc2)CC1` [Example 99, (4-Benzyl-piperidin-1-yl)-[3-(4-cyclopentyl-piperazin-1-ylmethyl)-1H-indol-6-yl]-methanone] returned a Ki of 28 nM. Next, `O=C(c1ccc2c(CN3CCCN(C4CCC4)CC3)c[nH]c2c1)N1CCOCC1` [Example 77, [3-(4-Cyclobutyl-[1,4]diazepan-1-ylmethyl)-1H-indol-6-yl]-morpholin-4-yl-methanone]: 38 nM; `O=C(c1ccc2c(CN3CCN(C4CCC4)CC3)c[nH]c2c1)N1CCCCCC1` [Example 93, Azepan-1-yl-[3-(4-cyclobutyl-piperazin-1-ylmethyl)-1H-indol-6-yl]-methanone]: 38 nM.

Turning to `CC(C)N1CCN(C(=O)c2ccc3c(CN4CCN(c5ccncc5)CC4)c[nH]c3c2)CC1` [Example 64, (4-Isopropyl-piperazin-1-yl)-[3-(4-pyridin-4-yl-piperazin-1-ylmethyl)-1H-indol-6-yl]-methanone], the Ki was determined as 1 nM. Next, `CC(C)N1CCN(C(=O)c2ccc3[nH]cc(CN4CCOCC4)c3c2)CC1` [Example 35, (4-Isopropyl-piperazin-1-yl)-(3-morpholin-4-ylmethyl-1H-indol-5-yl)-methanone]: 265 nM; `O=C(NCc1cccnc1)c1ccc2c(CN3CCOCC3)c[nH]c2c1` [Example 10, 3-Morpholin-4-ylmethyl-1H-indole-6-carboxylic acid (pyridin-3-ylmethyl)-amide]: 5010 nM; `CN(C)C1CCN(Cc2c[nH]c3cc(C(=O)N4CCC(c5ccccc5)CC4)ccc23)CC1` [Example 88, [3-(4-Dimethylamino-piperidin-1-ylmethyl)-1H-indol-6-yl]-(4-phenyl-piperidin-1-yl)-methanone]: 186 nM. As for `O=C(c1ccc2scc(CN3CCCCC3)c2c1)N1CCN(C2CCC2)CC1` [Example 103, (4-Cyclobutyl-piperazin-1-yl)-(3-piperidin-1-ylmethyl-benzo[b]thiophen-5-yl)-methanone], the figure is 7 nM; as for `O=C(c1ccc2c(CN3CCCN(C4CC4)CC3)c[nH]c2c1)N1CCCCC1` [Example 31, [3-(4-Cyclopropyl-[1,4]diazepan-1-ylmethyl)-1H-indol-6-yl]-piperidin-1-yl-methanone], 214 nM; as for `Cc1cccnc1CNC(=O)c1ccc2c(CN3CCOCC3)c[nH]c2c1` [Example 12, 3-Morpholin-4-ylmethyl-1H-indole-6-carboxylic acid (3-methyl-pyridin-2-ylmethyl)-amide], 2000 nM. Next, `CC(C)N1CCCN(Cc2c[nH]c3cc(C(=O)N4CCOCC4)ccc23)CC1` [Example 78, [3-(4-Isopropyl-[1,4]diazepan-1-ylmethyl)-1H-indol-6-yl]-morpholin-4-yl-methanone]: 42 nM; `O=C(NCc1ccncc1)c1ccc2c(CN3CCCCC3)c[nH]c2c1` [Example 16, 3-Piperidin-1-ylmethyl-1H-indole-6-carboxylic acid (pyridin-4-ylmethyl)-amide]: 327 nM.

One may read the Ki as the dissociation constant of the complex between target and ligand, obtained from inhibition or displacement. A high value points to a looser hold on the target.
